This is an account of results in patent publication US5958944A, “Benzamide compounds and pharmaceutical use thereof” (Yoshitomi Pharmaceutical Industries, Ltd., priority 1994, dated 1999).

In one assay the test system is thoracic aorta. The assay is described as follows: Pharmacological Experiment 2: vasodilating effects, relaxation of phenylephrine-contracted thoracic aorta rings. It counts as cell-based. Particulars: Oryctolagus cuniculus; rabbit thoracic aorta rings contracted with phenylephrine (10^-6 M); contraction by phenylephrine as 100%; read-out: vasodilating action (concentration necessary for 50% relaxation, IC50). As for the experimental part:
Pharmacological Experiment 2: vasodilating effects
Male rabbits (body weight 1.9-3.0 kg) were anesthetized with sodium pentobarbital and killed by exsanguinity. The thoracic aorta was removed and about 2 mm wide ring specimens were prepared. The specimens were hung in a 40 ml Magnus bath filled with Krebs-Henseleit solution (NaCl 117 mM; KCl 4.7 mM; CaCl2 2.5 mM; MgSO4 1.2 mM; NaHCO3 24.8 mM; KH2 PO4 1.2 mM; glucose 11.0 mM) at 37° C. at a load of 2 g. The Magnus bath was constantly aerated with a mixed gas (95% oxygen+5% carbon dioxide). The tension of the specimens was measured by isometric transducer (TB-611T, Nihon Koden). The specimens were contracted with phenylephrine (10^-6 M) and when the contraction became constant, the compound was cumulatively added to observe relaxing response. The relaxing response by the compound was calculated relative to contraction by phenylephrine as 100% as the concentration necessary for 50% relaxation (IC50, μM).

Another assay deals with tracheal specimen. The experiment in a line: Pharmacological Experiment 3: effect on contraction caused by acetylcholine in extracted tracheal specimen. The assay is classed as cell-based. Particulars: Cavia porcellus; guinea pig trachea contracted with acetylcholine (10^-6 M); relative to maximum response by papaverine (10^-4 M) as 100%; read-out: bronchodilative action (IC50). As to the method:
Pharmacological Experiment 3: Effect on contraction caused by acetylcholine in tracheal specimen extracted from guinea pig
Male Hartley guinea pigs (body weight 260-390 g) were anesthetized by intraperitoneal administration of pentobarbital sodium (100 mg/kg) and killed by exsanguinity. The trachea was removed and ventral cartilage was cut open and ligament was cut in 3 mm width to prepare specimens. The specimens were hung in a 40 ml Magnus bath filled with Krebs-Henseleit solution (NaCl 117 mM; KCl 4.7 mM; CaCl2 2.5 mM; MgSO4 1.2 mM; NaHCO3 24.8 mM; KH2 PO4 1.2 mM; glucose 11.0 mM) at 37° C. at a load of 1 g. The Magnus bath was constantly aerated with a mixed gas (95% oxygen+5% carbon dioxide). The tension of the specimens was measured by isometric transducer (TB-611T, Nihon Koden) and recorded on a recorder (Ti-102, Tokai Irika). The specimens were contracted with acetylcholine (10^-6 M) and when the contraction became constant, the compound was cumulatively added to observe relaxing response. The relaxing response by the compound was calculated relative to maximum response by papaverine (10^-4 M) as 100% as the concentration necessary for 50% relaxation (IC50, μM).

Assay [1] deals with spontaneously hypertensive rats (SHR). The assay is described as follows: Pharmacological Experiment 1: hypotensive effects, systolic blood pressure at one hour after oral administration, tail cuff method. It counts as in vivo, rat. Particulars: SHR P.O., 30 mg/kg. As to the method:
Pharmacological Experiment 1: hypotensive effects
To spontaneously hypertensive rats (SHR) weighing 350-450 g (3-5 per group) was orally administered a test compound (30 mg/kg) dissolved in 0.5% hydroxypropylmethylcellulose, and systolic blood pressure at one hour after administration was determined by tail cuff method to examine hypotensive effects.

`C[C@@H](N)c1ccc(C(=O)Nc2ccnc3[nH]ccc23)cc1` [Example 9, (R)-(+)-N-(1H-pyrrolo[2,3-b]pyridin-4-yl)-4-(1-aminoethyl)benzamide]: the IC50 in the assay with thoracic aorta and in the assay on tracheal specimen was 0.05 µM in each case. For the same compound, in assay [1], the hypotensive effect is recorded as -131 mmHg.

With `C[C@@H](N)c1ccc(C(=O)Nc2ccnc3[nH]ccc23)cc1N=[N+]=[N-]` [Example 150, (R)-(-)-N-(1H-pyrrolo[2,3-b]pyridin-4-yl)-4-(1-aminoethyl)-3-azidobenzamide], the IC50 in the assay with thoracic aorta stood at 0.03 µM.

`C[C@@H](N)c1ccc(C(=O)Nc2ccncc2)cc1` [Example 1, (R)-N-(4-pyridyl)-4-(1-aminoethyl)benzamide] displayed a hypotensive effect in assay [1] of -116 mmHg.
